“Also recorded” adds a separate entry of the source. Values belong to the compound of their own block, whether it stands above or below them.
Assays:
mouse iTCR = assay: In vitro activation of mouse iTCR, DN3.2 iNKT hybridoma with drug-loaded BWSTIM cells, IL-2 secretion; assay type: cell-based; settings: for IL-2 secretion compared to α-GalCer: drug loaded at 0.01 μg/mL, 48 hours co-culture, FIG. 2
Experimental: In order to determine the mouse iTCR activation potential induced by the compounds described herein, a mouse iNKT hybridoma cell line (DN3.2) from the La Jolla Institute for Allergy and Immunology were used as the iNKT. The BWS147 cell line (BWSTIM) with CD80 and CD1d acted as the antigen-presenting cell.
(§1) DCD molecules or α-GalCer were both dissolved in DMSO at a 5 mg/mL stock solution. BWSTIM cells were loaded with DCD molecules or α-GalCer of varying concentrations for 4 hours at 37° C. at a concentration of 20 k cells/well in 200 μL of media in a u-bottom 96 well dish. BWSTIM cells were washed 2× with media, then incubated with DN3.2 cells at a concentration of 80 k cells/well in a u-bottom 96 well dish. Cells were co-cultured for 48 hours. Media was collected and IL-2 was measured using the CisBio HTRF ELISA detection kit.
(§2) A jurkat cell line (JiNKT) was transfected with the human iTCR, and GFP under the NFkB promoter. A BWS147 cell line (BWSTIM) was also transfected with CD80 and CD1d to act as the antigen-presenting cell. A mouse iNKT hybridoma cell line (DN3.2) was also used as the iNKT. […]
as §1, with “GVK” for “DCD”, “compounds” for “DCD molecules or α-GalCer of varying concentrations”

human iTCR = assay: In vitro activation of human iTCR through Jurkat reporter cell line (JiNKT, GFP under NFkB promoter) with drug-loaded BWSTIM cells; assay type: cell-based; settings: BWSTIM loaded 4 hours, co-culture with JiNKT 18 to 24 hours; FIG. 1
Experimental: In order to determine the human iTCR activation potential induced by the compounds described herein, a jurkat cell line (JiNKT) was transfected with the human iTCR, and GFP under the NFkB promoter (cell line licensed from the Medical University of Vienna). A BWS147 cell line (BWSTIM) was also transfected with CD80 and CD1d to act as the antigen-presenting cell.
(§3) DCD molecules or α-GalCer were both dissolved in DMSO at a 5 mg/mL stock solution. BWSTIM cells were loaded with DCD molecules or α-GalCer at varying concentrations for 4 hours at 37° C. at a concentration of 20 k cells/well in 200 μL of media in a u-bottom 96 well dish. BWSTIM cells were washed 2× with media, then incubated with JiNKT cells at a concentration of 80 k cells/well in a u-bottom 96 well dish. Cells were co-cultured for 18 to 24 hours. The percentage of cells expressing high levels of GFP was measured through flow cytometry (after gating out the mCD45+ BWSTIM cells).
as §2
as §3, with “GVK” for “DCD”, “compounds” for “DCD molecules or α-GalCer at varying concentrations”, “for” for “for 18 to”, “cytometry. 1 μg/mL of molecule GVK1a, GVK1b, GVK1c, or GVK1f was incubated with BWSTIM+JiNKT, and compared to α-GalCer.” for “cytometry (after gating out the mCD45+ BWSTIM cells).”

primary human iNKT cells = assay: Cytokine secretion of primary human iNKT cells co-cultured with drug-loaded BWSTIM cells; assay type: cell-based; settings: BWSTIM loaded with 10 μg/mL; for IFNγ secretion compared to the no-compound control: FIG. 3A; for IL6 secretion compared to the no-compound control: FIG. 3B; for TNFα secretion compared to the no-compound control: FIG. 3C
Experimental: In order to determine the activation profile induced by the compounds described herein, primary human iNKT cells were co-cultured with drug-loaded BWSTIM cells.
Day 0: PBMCs were isolated from human blood using the STEMCELL TECHNOLOGIES™ SepMate™ PBMC isolation system. iNKT cells were then selected using the Miltenyi NKT magnetic cell separation kit.
Day 2: DCD molecules or α-GalCer were both dissolved in DMSO at a 5 mg/mL stock solution. BWSTIM cells were fixed with mitomycin C, then loaded with 10 μg/mL of DCD molecules or α-GalCer for 4 hours at 37° C. at a concentration of 20 k cells/well in 200 μL of media in a u-bottom 96 well dish. Cells were co-cultured with 80 k 6B11+ selected primary human iNKT cells.
D4: Media was collected. Cytokines were measured using the Satorious 4Plex kit on the iQue3 cytometer.
GVK molecules or α-GalCer were both dissolved in DMSO at a 5 mg/mL stock solution. BWSTIM cells were loaded with compounds for 4 hours at 37° C. at a concentration of 20 k cells/well in 200 μL of media in a u-bottom 96 well dish. Cells were co-cultured with 100 k 6B11+ selected primary human iNKT cells. Media was collected 2 days later. Cytokines were measured using the Satorious 4Plex kit on the iQue3 cytometer.

serum IFNγ = assay: In vivo serum IFNγ (ELISA) in C57BL/6J mice; settings: 2 μg I.P.; twenty hours post-injection; FIG. 4A
Experimental: (§4) In order to determine the expansion induced by the molecules described herein, molecules were injected into C57BL/6J mice. Serum IFNγ levels and the expansion of iNKT cells within splenocytes was measured 4 days post-IP injection.
(§5) Eight weeks old C57BL/6J mice were injected (I.P.) with 2 μg of α-GalCer or DCD molecules. Molecules were either dissolved in DMSO at a 5 mg/mL stock solution, or formulated into liposomes through thin-film rehydration, then extrusion through 200 nm filters. Liposome-based formulations were constructed using soy phosphatidylcholine, cholesterol, and DCD or α-GalCer in a 2:1:0.15 ratio. Twenty hours post-injection, blood was collected from the tail to measure the level of serum IFNγ using an ELISA kit from Biolegend. Four days post-injection, the mice were sacrificed and the spleenocytes were isolated. The percentage of iNKT cells within the spleens was measured using flow cytometry, selecting for live cells and mouse CD1d-α-GalCer tetramer+ cells.

iNKT cells [1] = assay: In vivo iNKT cell expansion in spleen of C57BL/6J mice (flow cytometry); settings: 2 μg I.P.; four days post-injection; FIG. 4B
Experimental: as §4, §5

iNKT cells [2] = assay: Diet induced obesity (HFD) mouse model: iNKT cell expansion in spleen or eWAT; assay type: in vivo, C57BL/6J mice; settings: HFD mice, I.P. 2 g, four days post-injection
Experimental: (§6) Senescence is a feature of pre-adipocytes in obese individuals. To study the efficacy of the molecules described herein in decreasing senescence in fat, a diet induced obesity high fat diet (HFD) mouse model was used. 22-week-old HFD mice were injected with α-GalCer as a control and compared with the compounds of the present disclosure. The blood and spleen (or adipose tissue) were collected to measure iNKT activation and expansion, respectively. Cells in the eWAT (adipose tissue) were also collected and measured for % senescent cells. HFD mice were compared to non-HFD (normal diet) mice.
(§7) 22-week-old C57BL/6J mice on a chow or high-fat diet (HFD) were injected (I.P) with […] of α-GalCer, compound DCD-101 or compound DCD-154. Molecules were either dissolved in DMSO at a 5 mg/mL stock solution, or formulated into liposomes through thin-film rehydration, then extrusion through 200 nm filters. Liposome-based formulations were constructed using soy phosphatidylcholine, cholesterol, and DCD or α-GalCer in a 2:1:0.15 ratio. Two or twenty hours post-injection, blood was collected from the tail to measure the level of IFNγ using ELISA. Four days post-injection, mice were sacrificed to collect eWAT or spleen. Spleen was used to measure the number of iNKT cells, and eWAT was used to measure the number of iNKT cells and senescent cells using flow cytometry. iNKT cells were identified in the digested adipose tissue by gating live cells and mouse CD1d-α-GalCer tetramer+ cells. Senescent cells were measured withing the processes adipose tissue by selecting mCD45− cells, and C12FDG^HIGH cells.

IFNγ = assay: Diet induced obesity (HFD) mouse model: serum IFNγ (ELISA); assay type: in vivo, C57BL/6J mice; settings: for secretion of IFNγ in the HFD mouse model: between two and twenty hours post-treatment
Experimental: as §6, §7

senescent cells in eWAT = assay: Diet induced obesity (HFD) mouse model: senescent cells (C12FDG+) in eWAT; assay type: in vivo, C57BL/6J mice; settings: HFD mice, four days post-injection; FIG. 5E
Experimental: as §6, §7

Structure (SMILES): CCCCCCCCCCCCCC[C@@H](O)[C@@H](O)[C@H](COC1OC(CO)C(O)C(O)C1O)NC(=O)CCCCCCCCCCC12CCC(CC1)CC2 (some centres unmarked) [DCD-102]
IL-2 secretion compared to α-GalCer (mouse iTCR): greater IL-2 secretion than α-GalCer

EC50 of the dose response based on percentage GFP+ cells, compared to α-GalCer (human iTCR): lower EC50s compared to α-GalCer
Structure (SMILES): CCCCCCCCCCCCCC[C@@H](O)[C@@H](O)[C@H](COC1OC(CO)C(O)C(O)C1O)NC(=O)CCCCCCCCCCC1CC1C (some centres unmarked) [DCD-106]
IL-2 secretion compared to α-GalCer (mouse iTCR): greater IL-2 secretion than α-GalCer
IFNγ secretion compared to the no-compound control (primary human iNKT cells): significantly higher levels
IL6 secretion compared to the no-compound control (primary human iNKT cells): significantly higher levels
TNFα secretion compared to the no-compound control (primary human iNKT cells): significantly higher levels

EC50 of the dose response based on percentage GFP+ cells, compared to α-GalCer (human iTCR): lower EC50s compared to α-GalCer
Structure (SMILES): CCCCCCCCCCCCCC[C@@H](O)[C@@H](O)[C@H](COC1OC(CO)C(O)C(O)C1O)NC(=O)CCCCCCCCCCCCCCCCCCCCCCCCC12CC(F)(C1)C2 (some centres unmarked) [DCD-156]
average serum IFNγ compared to α-GalCer (serum IFNγ): higher than the average serum IFNγ of C57BL/6J mice treated with α-GalCer

Structure (SMILES): CCCCCCCCCCCCCC[C@@H](O)[C@@H](O)[C@H](COC1OC(CO)C(O)C(O)C1O)NC(=O)CCCCCCCCCCC12CC(CCCCCCCCCCCCC)(C1)C2 (some centres unmarked) [DCD-154]
average serum IFNγ compared to α-GalCer (serum IFNγ): higher than the average serum IFNγ of C57BL/6J mice treated with α-GalCer
average iNKT cell isolated from the spleen compared to α-GalCer (iNKT cells [1]): higher than mice treated with α-GalCer
expansion of immune (iNKT) cells in HFD mouse eWAT (iNKT cells [2]; percent iNKT cells of live cells, FIG. 5B): caused expansion of immune cells in HFD mouse eWAT; also recorded: expand iNKT cells
secretion of IFNγ in the HFD mouse model (IFNγ): induce secretion of IFNγ
levels of IFNγ in the HFD model (IFNγ; twenty hours post injection, FIG. 5D): significantly increased levels of IFNγ
accumulation of senescent cells (C12FDG+) in eWAT (senescent cells in eWAT): effective in decreasing the accumulation of senescent cells in eWAT; also recorded: Senescent cell reduction in adipose tissue is observed

Structure (SMILES): CCCCCCCCCCCCCCCCC[Si](C)(C)CCCCCCCC(=O)N[C@@H](COC1OC(CO)C(O)C(O)C1O)[C@H](O)[C@H](O)CCCCCCCCCCCCCC (some centres unmarked) [DCD-157]
EC50 of the dose response based on percentage GFP+ cells, compared to α-GalCer (human iTCR): lower EC50s compared to α-GalCer
average serum IFNγ compared to α-GalCer (serum IFNγ): higher than the average serum IFNγ of C57BL/6J mice treated with α-GalCer

EC50 of the dose response based on percentage GFP+ cells, compared to α-GalCer (human iTCR): lower EC50s compared to α-GalCer
Structure (SMILES): CCCCCCCCCCCCCC[C@@H](O)[C@@H](O)[C@H](COC1OC(CO)C(O)C(O)C1O)NC(=O)CCCCCCCCCCC12CC(F)(C1)C2 (some centres unmarked) [DCD-101]
IL-2 secretion compared to α-GalCer (mouse iTCR): greater IL-2 secretion than α-GalCer
IL-2 secretion (mouse iTCR; ranking among tested compounds, at the lowest concentrations): highest IL-2 secretion at the lowest concentrations
IFNγ secretion compared to the no-compound control (primary human iNKT cells): significantly higher levels
IL6 secretion compared to the no-compound control (primary human iNKT cells): significantly higher levels
TNFα secretion compared to the no-compound control (primary human iNKT cells): significantly higher levels
expansion of immune (iNKT) cells in HFD mouse spleen (iNKT cells [2]; FIG. 5A): caused expansion of immune cells in HFD mouse spleen; also recorded: expand iNKT cells
secretion of IFNγ in the HFD mouse model (IFNγ): induce secretion of IFNγ
levels of serum IFNγ in the HFD model (IFNγ; two hours post injection, FIG. 5C): significantly increased levels of IFNγ
accumulation of senescent cells (C12FDG+) in eWAT (senescent cells in eWAT): effective in decreasing the accumulation of senescent cells in eWAT; also recorded: Senescent cell reduction in adipose tissue is observed

EC50 of the dose response based on percentage GFP+ cells, compared to α-GalCer (human iTCR): lower EC50s compared to α-GalCer
Structure (SMILES): CCCCCCCCCCCCCC[C@@H](O)[C@@H](O)[C@H](COC1OC(CO)C(O)C(O)C1O)NC(=O)CCCCCCCCCCCCCCCCCCCCCCCC1COC1 (some centres unmarked) [DCD-153]
average serum IFNγ compared to α-GalCer (serum IFNγ): higher than the average serum IFNγ of C57BL/6J mice treated with α-GalCer
average iNKT cell isolated from the spleen compared to α-GalCer (iNKT cells [1]): higher than mice treated with α-GalCer

Reference: US12655171B2, “Compounds for activating invariant natural killer T-cells and methods of use in eliminating inflammatory senescent cells” (Deciduous Therapeutics, Inc., priority 2021, dated 2026)
